According to ChEMBL document CHEMBL1129317, “Novel selective and partial agonists of 5-HT3 receptors. Part 1. Synthesis and biological evaluation of piperazinopyrrolothienopyrazines” (J Med Chem, 1996):

How the values were obtained:
[1] = Inhibitory activity against VIP using [125]VIP at 10e-5 (M)
[2] = molecular target: T1, Serotonin 3 (5-HT3) receptor (Rattus norvegicus, UniProt P35563+Q9JJ16); test: Binding affinity towards 5-hydroxytryptamine 3 receptor; format: protein-complex assay
T1 sequence (P35563 whole entry): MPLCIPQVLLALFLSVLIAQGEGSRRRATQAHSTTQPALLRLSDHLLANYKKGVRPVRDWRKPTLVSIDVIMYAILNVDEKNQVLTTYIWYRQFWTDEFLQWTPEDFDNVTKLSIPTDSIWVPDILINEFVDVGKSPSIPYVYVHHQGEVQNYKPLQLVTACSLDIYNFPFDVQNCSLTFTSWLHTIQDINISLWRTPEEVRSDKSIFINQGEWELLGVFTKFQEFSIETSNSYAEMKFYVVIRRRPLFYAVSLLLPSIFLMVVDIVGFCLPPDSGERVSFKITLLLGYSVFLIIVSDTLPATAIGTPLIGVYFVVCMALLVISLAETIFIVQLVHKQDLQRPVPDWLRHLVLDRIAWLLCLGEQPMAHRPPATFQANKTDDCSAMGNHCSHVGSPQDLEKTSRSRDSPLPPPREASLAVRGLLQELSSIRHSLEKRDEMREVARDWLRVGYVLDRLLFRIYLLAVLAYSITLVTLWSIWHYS
T1 sequence (Q9JJ16 whole entry): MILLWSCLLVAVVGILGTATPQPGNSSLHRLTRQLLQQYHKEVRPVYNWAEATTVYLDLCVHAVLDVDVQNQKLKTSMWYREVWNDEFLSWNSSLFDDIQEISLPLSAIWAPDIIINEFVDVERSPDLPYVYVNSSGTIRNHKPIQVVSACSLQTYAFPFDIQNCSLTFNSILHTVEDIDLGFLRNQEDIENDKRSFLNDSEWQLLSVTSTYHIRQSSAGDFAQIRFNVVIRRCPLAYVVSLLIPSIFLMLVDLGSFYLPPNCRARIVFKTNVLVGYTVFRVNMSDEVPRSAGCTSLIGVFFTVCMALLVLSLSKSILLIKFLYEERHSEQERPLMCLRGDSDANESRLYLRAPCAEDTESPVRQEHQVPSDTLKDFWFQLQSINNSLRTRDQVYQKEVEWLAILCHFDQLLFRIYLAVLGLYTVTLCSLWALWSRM

[3] = molecular target: Muscarinic acetylcholine receptor M1 (Homo sapiens) (UniProt P11229); test: Inhibitory activity against Muscarinic acetylcholine receptor M1 using [3H]pirenzepine at […] (M)
Chain of Muscarinic acetylcholine receptor M1 (Homo sapiens) (P11229 whole entry): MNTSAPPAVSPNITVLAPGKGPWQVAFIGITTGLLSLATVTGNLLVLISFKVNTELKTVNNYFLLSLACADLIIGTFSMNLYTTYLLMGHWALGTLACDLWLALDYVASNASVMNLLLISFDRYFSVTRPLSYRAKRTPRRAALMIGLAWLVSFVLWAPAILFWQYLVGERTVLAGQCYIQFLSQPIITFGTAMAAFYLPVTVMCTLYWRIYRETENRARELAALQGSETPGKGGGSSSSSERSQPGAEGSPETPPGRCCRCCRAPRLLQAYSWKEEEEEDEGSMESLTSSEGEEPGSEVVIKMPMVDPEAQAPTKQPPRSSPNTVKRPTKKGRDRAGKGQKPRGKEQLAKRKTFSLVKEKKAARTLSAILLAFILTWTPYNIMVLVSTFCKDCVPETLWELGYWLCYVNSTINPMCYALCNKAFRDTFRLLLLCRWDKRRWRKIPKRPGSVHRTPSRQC

[4] = molecular target: Muscarinic acetylcholine receptor M2 (Homo sapiens) (UniProt P08172); test: Inhibitory activity against Muscarinic acetylcholine receptor M2 using [3H]NMS at […] (M)
Chain of Muscarinic acetylcholine receptor M2 (Homo sapiens) (P08172 whole entry): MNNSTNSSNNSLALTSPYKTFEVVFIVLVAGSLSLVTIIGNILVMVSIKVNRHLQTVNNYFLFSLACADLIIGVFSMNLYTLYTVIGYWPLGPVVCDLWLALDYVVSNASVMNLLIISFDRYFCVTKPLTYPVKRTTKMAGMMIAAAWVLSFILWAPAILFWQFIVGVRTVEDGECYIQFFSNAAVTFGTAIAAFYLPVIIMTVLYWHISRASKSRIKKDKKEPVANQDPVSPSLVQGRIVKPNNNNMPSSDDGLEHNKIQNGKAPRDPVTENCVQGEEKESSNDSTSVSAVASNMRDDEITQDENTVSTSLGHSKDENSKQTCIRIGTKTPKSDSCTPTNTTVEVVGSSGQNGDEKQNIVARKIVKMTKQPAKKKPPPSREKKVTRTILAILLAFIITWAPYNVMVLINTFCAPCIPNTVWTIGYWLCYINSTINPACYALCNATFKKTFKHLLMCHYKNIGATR

[5] = molecular target: 5-hydroxytryptamine receptor 1B (Rattus norvegicus, UniProt P28564); test: Binding affinity for 5-hydroxytryptamine 1B receptor
Chain of 5-hydroxytryptamine receptor 1B (P28564 whole entry): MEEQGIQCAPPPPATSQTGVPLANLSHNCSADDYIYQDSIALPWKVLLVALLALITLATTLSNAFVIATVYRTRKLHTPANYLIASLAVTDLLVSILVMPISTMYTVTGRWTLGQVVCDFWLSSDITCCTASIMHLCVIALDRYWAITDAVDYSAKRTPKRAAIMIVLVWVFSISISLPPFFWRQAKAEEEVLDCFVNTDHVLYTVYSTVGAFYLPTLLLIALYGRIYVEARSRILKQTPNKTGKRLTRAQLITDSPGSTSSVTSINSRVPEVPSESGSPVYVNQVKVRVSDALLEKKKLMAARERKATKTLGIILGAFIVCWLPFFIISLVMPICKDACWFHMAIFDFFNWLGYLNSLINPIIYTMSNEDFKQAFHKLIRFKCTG

[6] = molecular target: 5-hydroxytryptamine receptor 2A (Bos taurus, UniProt Q75Z89); test: Binding affinity towards 5-hydroxytryptamine 2A receptor
Chain of 5-hydroxytryptamine receptor 2A (Q75Z89 whole entry): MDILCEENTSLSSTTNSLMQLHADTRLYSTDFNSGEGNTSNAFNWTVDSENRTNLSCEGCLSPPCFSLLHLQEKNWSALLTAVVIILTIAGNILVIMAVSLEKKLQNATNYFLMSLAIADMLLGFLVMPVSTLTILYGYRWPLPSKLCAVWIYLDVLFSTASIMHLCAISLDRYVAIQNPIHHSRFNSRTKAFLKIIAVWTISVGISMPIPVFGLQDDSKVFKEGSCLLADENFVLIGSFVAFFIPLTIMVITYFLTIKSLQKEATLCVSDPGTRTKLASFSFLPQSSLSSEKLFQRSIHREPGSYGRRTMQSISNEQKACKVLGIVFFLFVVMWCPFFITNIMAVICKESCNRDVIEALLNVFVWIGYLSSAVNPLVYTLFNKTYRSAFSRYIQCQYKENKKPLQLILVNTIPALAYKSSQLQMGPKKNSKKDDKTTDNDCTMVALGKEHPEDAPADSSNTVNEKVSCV

[7] = molecular target: Adrenergic receptor alpha-2 (Homo sapiens) (UniProt P08913+P18825+P18089); test: Inhibitory activity against Alpha-2 adrenergic receptor using [3H]RX-821002 at 10e-5 (M); format: protein assay
[8] = molecular target: Glutamate receptor ionotropic AMPA (Homo sapiens) (UniProt P48058+P42263+P42262+P42261); test: Inhibitory activity against Quisqualate receptor using [3H]AMPA at […] (M); format: protein-complex assay
[9] = Inhibitory activity against Bradykinin receptor using [3H]bradykinin at […] (M)
[10] = test system: NG108-15; test: In vitro effective concentration against [14C]guanidinium uptake into NG 108-15 cells; format: functional, cell-based; settings: Murinae
[11] = molecular target: D(2) dopamine receptor (Homo sapiens) (UniProt P14416); test: In vitro displacement from Dopamine receptor D2; settings: concentration not given here
Chain of D(2) dopamine receptor (Homo sapiens) (P14416 whole entry): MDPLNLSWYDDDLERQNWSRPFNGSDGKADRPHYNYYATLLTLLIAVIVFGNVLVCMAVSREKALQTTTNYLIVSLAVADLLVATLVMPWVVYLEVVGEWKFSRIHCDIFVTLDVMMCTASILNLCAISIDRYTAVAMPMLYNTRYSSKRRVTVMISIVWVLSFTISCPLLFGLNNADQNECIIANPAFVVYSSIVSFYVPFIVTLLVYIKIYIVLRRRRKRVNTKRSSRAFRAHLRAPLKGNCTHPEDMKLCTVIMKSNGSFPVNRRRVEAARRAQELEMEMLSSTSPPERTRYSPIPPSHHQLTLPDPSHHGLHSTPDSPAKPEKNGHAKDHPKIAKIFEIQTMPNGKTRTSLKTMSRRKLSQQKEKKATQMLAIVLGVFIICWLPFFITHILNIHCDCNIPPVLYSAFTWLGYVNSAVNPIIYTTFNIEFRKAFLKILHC

[12] = molecular target: Kappa-type opioid receptor (Homo sapiens) (UniProt P41145); test: Inhibitory activity against Opioid receptor kappa 1 using [3H]U-69593 at 10e-7 (M)
Chain of Kappa-type opioid receptor (Homo sapiens) (P41145 whole entry): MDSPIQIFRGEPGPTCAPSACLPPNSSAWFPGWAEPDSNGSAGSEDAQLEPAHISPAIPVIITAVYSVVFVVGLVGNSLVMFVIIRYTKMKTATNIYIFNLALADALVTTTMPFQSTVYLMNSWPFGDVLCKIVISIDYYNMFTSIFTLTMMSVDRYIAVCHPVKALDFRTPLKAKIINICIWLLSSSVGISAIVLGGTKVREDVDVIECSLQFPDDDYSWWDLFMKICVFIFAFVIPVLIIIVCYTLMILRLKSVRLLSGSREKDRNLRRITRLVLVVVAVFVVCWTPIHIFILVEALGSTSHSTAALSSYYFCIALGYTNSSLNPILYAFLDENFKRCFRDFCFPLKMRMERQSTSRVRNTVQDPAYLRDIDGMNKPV

[13] = molecular target: GABA-A receptor; anion channel (Homo sapiens) (UniProt P14867+P47870+P18507+P28472+P48169+Q99928+Q9UN88+P34903+O00591+O14764+Q8N1C3+P18505+P78334+P47869+P31644+Q16445); test: Inhibitory activity against Gamma-aminobutyric acid A (GABA-A) receptor using [3H]-muscimol at 10e-5 M; format: protein-complex assay
[14] = molecular target: T2, Glutamate [NMDA] receptor (Homo sapiens) (UniProt Q05586+Q12879+Q13224+O15399+O60391+Q14957+Q8TCU5); test: Inhibitory activity against Phencyclidine receptor using [3H]-TCP at […] (M); format: protein-complex assay
[15] = molecular target: Cysteinyl leukotriene receptor 1 (Homo sapiens) (UniProt Q9Y271); test: Inhibitory activity against Cysteinyl leukotriene D4 receptor using [3H]- LTD4 at […] (M)
Chain of Cysteinyl leukotriene receptor 1 (Homo sapiens) (Q9Y271 whole entry): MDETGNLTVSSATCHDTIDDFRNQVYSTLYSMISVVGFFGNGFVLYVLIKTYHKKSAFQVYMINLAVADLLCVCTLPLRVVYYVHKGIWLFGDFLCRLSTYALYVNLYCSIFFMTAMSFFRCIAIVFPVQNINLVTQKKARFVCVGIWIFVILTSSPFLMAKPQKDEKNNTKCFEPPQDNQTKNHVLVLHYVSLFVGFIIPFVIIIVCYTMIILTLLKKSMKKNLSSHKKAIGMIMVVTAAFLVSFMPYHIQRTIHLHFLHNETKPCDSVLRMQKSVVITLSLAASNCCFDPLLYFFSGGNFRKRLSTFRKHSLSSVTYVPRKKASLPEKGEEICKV

[16] = Inhibition of [3H]PK11195 binding to peripheral Benzodiazepine receptor at 10e-5 M
[17] = molecular target: Tumor necrosis factor receptor superfamily member 1A (Homo sapiens) (UniProt P19438); test: Inhibitory activity against TNF using [125]TNF at 10e-5 (M)
Chain of Tumor necrosis factor receptor superfamily member 1A (Homo sapiens) (P19438 whole entry): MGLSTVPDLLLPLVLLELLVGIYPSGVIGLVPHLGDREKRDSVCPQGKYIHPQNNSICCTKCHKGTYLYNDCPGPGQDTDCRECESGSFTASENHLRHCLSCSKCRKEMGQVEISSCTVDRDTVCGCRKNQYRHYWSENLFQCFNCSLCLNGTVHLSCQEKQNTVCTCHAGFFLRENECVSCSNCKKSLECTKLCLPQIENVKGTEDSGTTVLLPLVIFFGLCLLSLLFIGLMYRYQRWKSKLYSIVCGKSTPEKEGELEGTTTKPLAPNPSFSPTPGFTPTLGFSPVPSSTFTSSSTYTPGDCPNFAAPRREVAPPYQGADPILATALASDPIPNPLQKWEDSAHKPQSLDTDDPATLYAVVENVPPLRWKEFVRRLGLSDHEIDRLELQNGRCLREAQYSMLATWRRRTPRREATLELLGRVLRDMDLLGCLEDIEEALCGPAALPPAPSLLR

[18] = molecular target: Beta-1 adrenergic receptor (Homo sapiens) (UniProt P08588); test: Inhibitory activity against Beta-1 adrenergic receptor using [3H]CGP-12177 at 10e-5 (M)
Chain of Beta-1 adrenergic receptor (Homo sapiens) (P08588 whole entry, looked up): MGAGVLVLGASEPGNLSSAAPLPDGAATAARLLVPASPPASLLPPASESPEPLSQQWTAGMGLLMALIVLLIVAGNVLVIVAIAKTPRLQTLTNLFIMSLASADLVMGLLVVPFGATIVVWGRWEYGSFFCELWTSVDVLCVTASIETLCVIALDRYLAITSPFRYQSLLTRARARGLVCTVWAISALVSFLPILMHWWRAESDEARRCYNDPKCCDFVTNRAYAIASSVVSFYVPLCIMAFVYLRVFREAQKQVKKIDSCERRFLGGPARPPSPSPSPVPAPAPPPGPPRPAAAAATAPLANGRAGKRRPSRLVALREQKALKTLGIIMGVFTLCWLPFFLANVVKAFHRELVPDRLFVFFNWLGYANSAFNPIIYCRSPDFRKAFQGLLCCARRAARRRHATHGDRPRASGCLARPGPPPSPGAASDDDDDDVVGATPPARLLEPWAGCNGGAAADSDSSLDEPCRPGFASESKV

[19] = molecular target: T2, Glutamate [NMDA] receptor (Homo sapiens); test: Inhibitory activity against NMDA using [3H]CGS-19,755 at […] (M); format: protein-complex assay
[20] = molecular target: Serotonin 3 (5-HT3) receptor (Rattus norvegicus) (UniProt P35563+Q9JJ16); test: Antagonistic activity of compound towards 5-hydroxytryptamine 3 receptor in Von Bezold-Jarisch reflex in rats at 60 (ug/kg), evaluated as percent inhibition of bradycardia; format: functional
[21] = molecular target: Muscarinic acetylcholine receptor M3 (Homo sapiens) (UniProt P20309); test: Inhibitory activity against Muscarinic acetylcholine receptor M3 using [3H]NMS at […] (M)
Chain of Muscarinic acetylcholine receptor M3 (Homo sapiens) (P20309 whole entry, looked up): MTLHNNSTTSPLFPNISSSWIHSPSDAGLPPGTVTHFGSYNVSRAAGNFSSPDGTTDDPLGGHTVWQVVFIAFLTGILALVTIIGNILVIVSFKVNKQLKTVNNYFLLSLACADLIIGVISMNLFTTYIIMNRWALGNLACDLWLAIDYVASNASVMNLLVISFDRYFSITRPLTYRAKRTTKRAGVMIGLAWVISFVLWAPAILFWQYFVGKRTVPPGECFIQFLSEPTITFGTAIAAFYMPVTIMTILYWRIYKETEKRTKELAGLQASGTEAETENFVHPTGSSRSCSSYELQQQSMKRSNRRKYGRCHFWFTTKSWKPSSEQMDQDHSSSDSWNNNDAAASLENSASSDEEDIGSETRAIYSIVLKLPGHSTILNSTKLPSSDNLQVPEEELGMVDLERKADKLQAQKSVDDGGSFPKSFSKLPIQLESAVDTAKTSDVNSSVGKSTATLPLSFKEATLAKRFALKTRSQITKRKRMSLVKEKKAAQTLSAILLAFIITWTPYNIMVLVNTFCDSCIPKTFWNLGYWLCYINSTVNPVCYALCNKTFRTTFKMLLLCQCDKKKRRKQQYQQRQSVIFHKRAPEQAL

[22] = molecular target: Adrenergic receptor alpha-1 (Homo sapiens) (UniProt P35348+P25100+P35368); test: Inhibitory activity against Alpha-1 adrenergic receptor using [3H]-prazosin at 10e-5 (M); format: protein assay
[23] = molecular target: T3, 5-hydroxytryptamine receptor 1A (Homo sapiens, UniProt P08908); test: Binding affinity for 5-hydroxytryptamine 1A receptor
T3 sequence (P08908 whole entry): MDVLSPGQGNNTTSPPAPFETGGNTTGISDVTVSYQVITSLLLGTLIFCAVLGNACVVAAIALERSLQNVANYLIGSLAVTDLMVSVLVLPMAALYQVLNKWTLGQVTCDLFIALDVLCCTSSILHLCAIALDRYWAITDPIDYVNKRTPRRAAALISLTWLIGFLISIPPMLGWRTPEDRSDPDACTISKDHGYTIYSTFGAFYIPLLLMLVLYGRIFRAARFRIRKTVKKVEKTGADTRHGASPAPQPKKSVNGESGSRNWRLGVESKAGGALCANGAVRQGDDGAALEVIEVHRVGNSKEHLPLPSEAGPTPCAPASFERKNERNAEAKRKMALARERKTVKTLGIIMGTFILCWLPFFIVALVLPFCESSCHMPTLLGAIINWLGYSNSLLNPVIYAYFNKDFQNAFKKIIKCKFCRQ

Structure (SMILES): c1ccc(CN2CCN(c3nc4ccsc4n4cccc34)CC2)cc1
- inhibition [1]: 6%
- IC50 [2]: 0.00141 µM
- inhibition [3]: 29%
- inhibition [4]: 5%
- IC50 [5]: 1.02 µM
- IC50 [6]: 4.37 µM
- inhibition [7]: 29%
- inhibition [8]: 24%
- inhibition [9]: 28%
- EC50 [10]: 0.01 µM
- inhibition [11]: 86%
- inhibition [12]: 10%
- inhibition [13]: 31%
- inhibition [14]: 10%
- inhibition [15]: 1%
- inhibition [16]: 34%
- inhibition [17]: 7%
- inhibition [18]: 21%
- inhibition [19]: 19%
- Change [20]: 40%
- inhibition [21]: 20%
- inhibition [22]: 26%
- IC50 [23]: 0.398 µM
